Literature values, collected in patent publication US6531115B1, “Analgesic and refreshing herbal composition and a process for preparing the same” (Council of Scientific & Industrial Research, priority 2001, dated 2003).

Tested on: artificial toothache
Details: rabbits having artificial toothache

Structure (SMILES)	sedative effect on toothache
Oc1ccccc1 [Phenol]	strongest action
CC12CCC(CC1=O)C2(C)C (stereo not drawn) [camphor]	no sedative effect
CC12CCC(CC1)C(C)(C)O2 [eucalyptol]	weak
CC1CCC(C(C)C)C(O)C1 (stereo not drawn) [menthol]	weak

Tested on: toothache
Details: in vivo

Structure (SMILES)	pain-relieving activity
Cc1ccc(C(C)C)c(O)c1 [Thymol]	very weak
CCO [alcohol]	almost no effect
